From ChEMBL document CHEMBL1909046, “DrugMatrix in vitro pharmacology data”

Columns and labels:
[1] = target: T1, C-X-C chemokine receptor type 1 (Homo sapiens, UniProt P25024); also: in other assays of this panel Not Active means under 50% inhibition at 10 µM
T1 sequence (P25024 whole entry): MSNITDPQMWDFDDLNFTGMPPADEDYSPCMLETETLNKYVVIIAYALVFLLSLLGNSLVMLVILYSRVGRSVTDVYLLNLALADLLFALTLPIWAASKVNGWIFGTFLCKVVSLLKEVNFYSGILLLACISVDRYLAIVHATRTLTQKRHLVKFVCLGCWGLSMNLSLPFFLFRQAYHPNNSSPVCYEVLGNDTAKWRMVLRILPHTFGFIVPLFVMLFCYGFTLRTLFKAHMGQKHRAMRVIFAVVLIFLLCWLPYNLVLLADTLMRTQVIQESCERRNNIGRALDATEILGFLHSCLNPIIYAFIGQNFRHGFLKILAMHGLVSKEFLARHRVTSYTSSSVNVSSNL

Interstitial collagenase = target: T2, Interstitial collagenase (Homo sapiens, UniProt P03956); assay type: tissue-based, Rheumatoid synovial fibroblasts;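 also: MMP-1 enzyme inhibition assay using a peptide substrate; in other assays of this panel Not Active means under 50% inhibition at 10 µM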
T2 sequence (P03956 whole entry): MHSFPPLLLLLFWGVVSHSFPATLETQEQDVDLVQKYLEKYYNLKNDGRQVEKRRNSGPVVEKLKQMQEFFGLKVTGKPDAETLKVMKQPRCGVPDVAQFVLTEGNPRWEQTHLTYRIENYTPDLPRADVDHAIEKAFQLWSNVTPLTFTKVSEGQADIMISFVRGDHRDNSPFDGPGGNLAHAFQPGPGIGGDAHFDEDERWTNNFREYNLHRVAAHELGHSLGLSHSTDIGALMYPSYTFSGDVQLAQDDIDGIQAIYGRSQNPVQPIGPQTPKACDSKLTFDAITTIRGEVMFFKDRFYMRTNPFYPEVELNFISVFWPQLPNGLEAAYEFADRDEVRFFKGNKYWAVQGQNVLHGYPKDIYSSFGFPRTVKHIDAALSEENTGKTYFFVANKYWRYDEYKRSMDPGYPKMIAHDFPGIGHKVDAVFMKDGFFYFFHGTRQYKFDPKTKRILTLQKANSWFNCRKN

D(1A) dopamine receptor = D(1A) dopamine receptor (Homo sapiens, UniProt P21728); assay: DRUGMATRIX: Dopamine D1 radioligand binding (ligand: [3H] SCH-23390); assay type: cell membranes, CHO, Membrane; settings: cho; Not Active = under 50% inhibition at 10 µM
[2] = DRUGMATRIX: Imidazoline I2, Central radioligand binding (ligand: [3H] Idazoxan); assay type: cell membranes, Rattus norvegicus, Wistar, Cerebral cortex, Membrane; settings: Not Active = under 50% inhibition at 10 µM
[3] = target: T3, C-X-C chemokine receptor type 2 (Homo sapiens, UniProt P25025); assay type: cell membranes, Membrane; settings: cho-k1; also: in other assays of this panel Not Active means under 50% inhibition at 10 µM
T3 sequence (P25025 whole entry): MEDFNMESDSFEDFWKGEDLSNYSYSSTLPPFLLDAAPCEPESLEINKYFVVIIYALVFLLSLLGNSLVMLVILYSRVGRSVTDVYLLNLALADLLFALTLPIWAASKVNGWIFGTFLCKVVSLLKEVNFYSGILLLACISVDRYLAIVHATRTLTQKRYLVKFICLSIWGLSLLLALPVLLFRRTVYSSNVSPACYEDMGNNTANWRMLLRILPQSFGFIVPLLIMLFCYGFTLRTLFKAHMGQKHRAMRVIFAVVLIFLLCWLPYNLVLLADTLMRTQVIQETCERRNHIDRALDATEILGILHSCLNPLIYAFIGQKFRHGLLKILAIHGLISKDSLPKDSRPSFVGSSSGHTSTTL

Leukotriene C4 synthase = target: T4, Leukotriene C4 synthase (Cavia porcellus, UniProt A6XA80); assay type: tissue-based, Lung;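 also: enzyme inhibition assay of leukotriene C4 synthase, using LTA4 as the substrate; in other assays of this panel Not Active means under 50% inhibition at 10 µM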
T4 sequence (A6XA80 whole entry): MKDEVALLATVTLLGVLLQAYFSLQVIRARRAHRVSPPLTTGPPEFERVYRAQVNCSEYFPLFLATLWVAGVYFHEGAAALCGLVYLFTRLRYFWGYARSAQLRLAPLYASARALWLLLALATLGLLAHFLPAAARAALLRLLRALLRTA

[4] = target: Prostaglandin G/H synthase 1 (Homo sapiens, UniProt P23219); assay: biochemical; assay type: tissue-based, Platelet; settings: platelet
Prostaglandin G/H synthase 1, sequence (P23219 whole entry): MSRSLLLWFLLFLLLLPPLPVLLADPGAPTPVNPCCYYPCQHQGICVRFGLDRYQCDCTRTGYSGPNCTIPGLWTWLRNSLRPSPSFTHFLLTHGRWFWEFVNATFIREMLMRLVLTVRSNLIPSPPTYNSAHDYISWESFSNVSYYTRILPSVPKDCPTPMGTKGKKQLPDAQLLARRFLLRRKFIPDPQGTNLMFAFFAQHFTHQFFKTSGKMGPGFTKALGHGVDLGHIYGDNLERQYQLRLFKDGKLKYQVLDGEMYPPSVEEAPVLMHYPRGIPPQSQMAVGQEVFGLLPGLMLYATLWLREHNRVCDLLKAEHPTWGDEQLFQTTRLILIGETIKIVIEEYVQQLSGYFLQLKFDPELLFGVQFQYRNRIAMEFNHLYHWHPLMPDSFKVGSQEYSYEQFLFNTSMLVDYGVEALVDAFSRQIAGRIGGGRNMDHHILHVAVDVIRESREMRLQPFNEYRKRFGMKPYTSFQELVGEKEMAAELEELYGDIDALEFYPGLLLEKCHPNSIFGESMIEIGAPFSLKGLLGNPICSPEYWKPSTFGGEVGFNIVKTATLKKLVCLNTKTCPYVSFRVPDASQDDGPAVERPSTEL

D(1A) dopamine receptor, sequence (P21728 whole entry): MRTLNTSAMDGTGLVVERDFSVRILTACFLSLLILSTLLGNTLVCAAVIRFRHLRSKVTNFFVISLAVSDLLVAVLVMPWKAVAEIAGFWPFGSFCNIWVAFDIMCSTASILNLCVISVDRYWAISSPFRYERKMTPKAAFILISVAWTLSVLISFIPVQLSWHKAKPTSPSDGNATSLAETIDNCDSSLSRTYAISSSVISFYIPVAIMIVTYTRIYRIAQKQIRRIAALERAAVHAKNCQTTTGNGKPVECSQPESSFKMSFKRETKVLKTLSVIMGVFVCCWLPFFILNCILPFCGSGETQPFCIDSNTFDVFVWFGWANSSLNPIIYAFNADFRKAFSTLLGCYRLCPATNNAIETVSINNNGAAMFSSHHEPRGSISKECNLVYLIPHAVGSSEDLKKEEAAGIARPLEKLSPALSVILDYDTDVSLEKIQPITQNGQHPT

CN(Cc1cnc2nc(N)nc(N)c2n1)c1ccc(C(=O)N[C@@H](CCC(=O)O)C(=O)O)cc1 [METHOTREXATE]
Not Active: IC50 [1] | IC50 (Interstitial collagenase) | IC50 (D(1A) dopamine receptor) | IC50 [2] | Ki [2] | IC50 [3] | IC50 (Leukotriene C4 synthase) | IC50 [4]

COC(=O)c1ccccc1O [METHYL SALICYLATE]
Not Active: IC50 [1] | IC50 (Interstitial collagenase) | IC50 (D(1A) dopamine receptor) | IC50 [2] | Ki [2] | IC50 [3] | IC50 (Leukotriene C4 synthase) | IC50 [4]

COc1ccc2cc(CCC(C)=O)ccc2c1 [NABUMETONE]
Not Active: IC50 [1] | IC50 (Interstitial collagenase) | IC50 (D(1A) dopamine receptor) | IC50 [2] | Ki [2] | IC50 [3] | IC50 (Leukotriene C4 synthase) | IC50 [4]

O=C(O)c1cccnc1 [NIACIN]
Not Active: IC50 [1] | IC50 (Interstitial collagenase) | IC50 (D(1A) dopamine receptor) | IC50 [2] | Ki [2] | IC50 [3] | IC50 (Leukotriene C4 synthase) | IC50 [4]

CNC(=C[N+](=O)[O-])NCCSCc1csc(CN(C)C)n1 [NIZATIDINE]
Not Active: IC50 [1] | IC50 (Interstitial collagenase) | IC50 (D(1A) dopamine receptor) | IC50 [2] | Ki [2] | IC50 [3] | IC50 (Leukotriene C4 synthase) | IC50 [4]

C[C@]12C/C(=C/O)C(=O)C[C@@H]1CC[C@@H]1[C@@H]2CC[C@@]2(C)[C@H]1CC[C@]2(C)O [OXYMETHOLONE]
Not Active: IC50 [1] | IC50 (Interstitial collagenase) | IC50 (D(1A) dopamine receptor) | IC50 [2] | Ki [2] | IC50 [3] | IC50 (Leukotriene C4 synthase) | IC50 [4]

CC(C)(CO)C(O)C(=O)NCCCO (stereo unspecified) [PANTHENOL]
Not Active: IC50 [1] | IC50 (Interstitial collagenase) | IC50 (D(1A) dopamine receptor) | IC50 [2] | Ki [2] | IC50 [3] | IC50 (Leukotriene C4 synthase) | IC50 [4]

COc1ccc(Cc2nccc3cc(OC)c(OC)cc23)cc1OC [PAPAVERINE]
Not Active: IC50 [1] | IC50 (Interstitial collagenase) | IC50 (D(1A) dopamine receptor) | IC50 [2] | Ki [2] | IC50 [3] | IC50 (Leukotriene C4 synthase) | IC50 [4]

OCCN1CCN(CCCN2c3ccccc3Sc3ccc(Cl)cc32)CC1 [PERPHENAZINE]
Not Active: IC50 [1] | IC50 (Interstitial collagenase) | IC50 (D(1A) dopamine receptor) | IC50 [2] | Ki [2] | IC50 [3] | IC50 (Leukotriene C4 synthase) | IC50 [4]

CCCCC1C(=O)N(c2ccccc2)N(c2ccccc2)C1=O [PHENYLBUTAZONE]
Not Active: IC50 [1] | IC50 (Interstitial collagenase) | IC50 (D(1A) dopamine receptor) | IC50 [2] | Ki [2] | IC50 [3] | IC50 (Leukotriene C4 synthase) | IC50 [4]

Cc1cccc(Nc2cc(Cl)nc(SCC(=O)O)n2)c1C [PIRINIXIC ACID]
Not Active: IC50 [1] | IC50 (Interstitial collagenase) | IC50 (D(1A) dopamine receptor) | IC50 [2] | Ki [2] | IC50 [3] | IC50 (Leukotriene C4 synthase) | IC50 [4]

CC[C@H](C)C(=O)O[C@H]1C[C@H](O)C=C2C=C[C@H](C)[C@H](CC[C@@H](O)C[C@@H](O)CC(=O)O)[C@H]21 [PRAVASTATIN]
Not Active: IC50 [1] | IC50 (Interstitial collagenase) | IC50 (D(1A) dopamine receptor) | IC50 [2] | Ki [2] | IC50 [3] | IC50 (Leukotriene C4 synthase) | IC50 [4]

CC(C)(Sc1cc(C(C)(C)C)c(O)c(C(C)(C)C)c1)Sc1cc(C(C)(C)C)c(O)c(C(C)(C)C)c1 [PROBUCOL]
Not Active: IC50 [1] | IC50 (Interstitial collagenase) | IC50 (D(1A) dopamine receptor) | IC50 [2] | Ki [2] | IC50 [3] | IC50 (Leukotriene C4 synthase) | IC50 [4]

COBALT(II) ACETYLACETONATE
Not Active: IC50 [1] | Ki [1] | IC50 (Interstitial collagenase) | Ki (Interstitial collagenase) | IC50 (D(1A) dopamine receptor) | Ki (D(1A) dopamine receptor) | IC50 [2] | Ki [2] | IC50 [3] | Ki [3] | IC50 (Leukotriene C4 synthase) | Ki (Leukotriene C4 synthase) | IC50 [4] | Ki [4]

INSULIN HUMAN
Not Active: IC50 [1] | Ki [1] | IC50 (Interstitial collagenase) | Ki (Interstitial collagenase) | IC50 (D(1A) dopamine receptor) | Ki (D(1A) dopamine receptor) | IC50 [2] | Ki [2] | IC50 [3] | Ki [3] | IC50 (Leukotriene C4 synthase) | Ki (Leukotriene C4 synthase) | IC50 [4] | Ki [4]

POLYVINYL ALCOHOL
Not Active: IC50 [1] | Ki [1] | IC50 (Interstitial collagenase) | Ki (Interstitial collagenase) | IC50 (D(1A) dopamine receptor) | Ki (D(1A) dopamine receptor) | IC50 [2] | Ki [2] | IC50 [3] | Ki [3] | IC50 (Leukotriene C4 synthase) | Ki (Leukotriene C4 synthase) | IC50 [4] | Ki [4]
